Where “and” joins values, the source holds several entries; their conditions need not be identical. Equal values may be shown once. Inconclusive results and toxic doses are left out.
System: P388 leukemia ip, CD2F1 mice, survival T/C
Assay: NCI In Vivo Anticancer Drug Screen. Data for tumor model P388 Leukemia (intraperitoneal) in CD2F1 (CDF1) mice
Settings: endpoint: median survival time, higher = longer survival
Procedure, shortened: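 Mice carrying the transplanted tumor received test compound or vehicle. Survival was recorded in each group, and the value is the treated-group measurement divided by that of the vehicle-treated control group.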

[1] = dose: 25.0 mg/kg/injection, schedule: Q01DX009 (ip), vehicle: distilled water + Tween-80
[2] = dose: 50.0 mg/kg/injection, schedule: Q01DX009 (ip), vehicle: distilled water + Tween-80
[3] = dose: 100.0 mg/kg/injection, schedule: Q01DX009 (ip), vehicle: distilled water + Tween-80
[4] = dose: 50.0 mg/kg/injection, schedule: Q01DX009 (ip), vehicle: Klucel (hydroxypropylcellulose) (HPC)
[5] = dose: 100.0 mg/kg/injection, schedule: Q01DX009 (ip), vehicle: Klucel (hydroxypropylcellulose) (HPC)
[6] = dose: 200.0 mg/kg/injection, schedule: Q01DX009 (ip), vehicle: Klucel (hydroxypropylcellulose) (HPC)
[7] = dose: 50.0 mg/kg/injection, schedule: Q01DX005 (ip), vehicle: Klucel (hydroxypropylcellulose) (HPC)
[8] = dose: 100.0 mg/kg/injection, schedule: Q01DX005 (ip), vehicle: Klucel (hydroxypropylcellulose) (HPC)
[9] = dose: 200.0 mg/kg/injection, schedule: Q01DX005 (ip), vehicle: Klucel (hydroxypropylcellulose) (HPC)
[10] = dose: 60.0 mg/kg/injection, schedule: Q01DX005 (ip), vehicle: saline with Tween-80
[11] = dose: 120.0 mg/kg/injection, schedule: Q01DX005 (ip), vehicle: saline with Tween-80
[12] = dose: 240.0 mg/kg/injection, schedule: Q01DX005 (ip), vehicle: saline with Tween-80
[13] = dose: 60.0 mg/kg/injection, schedule: Q01DX005 (ip), vehicle: saline
[14] = dose: 120.0 mg/kg/injection, schedule: Q01DX005 (ip), vehicle: saline
[15] = dose: 240.0 mg/kg/injection, schedule: Q01DX005 (ip), vehicle: saline
[16] = dose: 100.0 mg/kg/injection, schedule: Q01DX001 (ip), vehicle: Klucel (hydroxypropylcellulose) (HPC)
[17] = dose: 200.0 mg/kg/injection, schedule: Q01DX001 (ip), vehicle: Klucel (hydroxypropylcellulose) (HPC)
[18] = dose: 400.0 mg/kg/injection, schedule: Q01DX001 (ip), vehicle: Klucel (hydroxypropylcellulose) (HPC)
[19] = dose: 50.0 mg/kg/injection, schedule: Q01DX005 (ip), vehicle: saline with Tween-80
[20] = dose: 100.0 mg/kg/injection, schedule: Q01DX005 (ip), vehicle: saline with Tween-80
[21] = dose: 200.0 mg/kg/injection, schedule: Q01DX005 (ip), vehicle: saline with Tween-80
[22] = dose: 50.0 mg/kg/injection, schedule: Q01DX009 (ip), vehicle: saline
[23] = dose: 100.0 mg/kg/injection, schedule: Q01DX009 (ip), vehicle: saline
[24] = dose: 25.0 mg/kg/injection, schedule: Q01DX009 (ip), vehicle: saline
[25] = dose: 12.5 mg/kg/injection, schedule: Q01DX009 (ip), vehicle: saline
[26] = dose: 6.25 mg/kg/injection, schedule: Q01DX009 (ip), vehicle: saline

O=CNc1cccc(NC=O)c1
T/C [1]: 111 % of control | T/C [2]: 100 % of control | T/C [3]: 100 % of control | T/C (dose: 200.0 mg/kg/injection, schedule: Q01DX009 (ip), vehicle: distilled water + Tween-80): 100 % of control

Nc1ccc(NS(=O)(=O)c2cccs2)c(O)c1
T/C [4]: 97 % of control | T/C [5]: 94 % of control | T/C [6]: 105 % of control

CC(=O)NCc1cc(C)c(CC#N)cc1CC#N
T/C (dose: 6.25 mg/kg/injection, schedule: Q01DX009 (ip), vehicle: distilled water + Tween-80): 100 % of control | T/C (dose: 12.5 mg/kg/injection, schedule: Q01DX009 (ip), vehicle: distilled water + Tween-80): 89 % of control and 91 % of control | T/C [1]: 103 % of control | T/C [2]: 94 % of control | T/C [3]: 94 % of control

O=C1NC(O)c2cc(Br)ccc2O1 (stereo unspecified)
T/C [7]: 100 % of control | T/C [8]: 104 % of control | T/C [9]: 106 % of control

CC(=O)CC(=O)C(F)(F)F.CC(=O)CC(=O)C(F)(F)F.CC(=O)CC(=O)C(F)(F)F.[Sm]
T/C [4]: 96 % of control | T/C [5]: 94 % of control | T/C [6]: 93 % of control | T/C (dose: 400.0 mg/kg/injection, schedule: Q01DX009 (ip), vehicle: Klucel (hydroxypropylcellulose) (HPC)): 94 % of control

COc1cc2c(c(OC)c1OC)-c1ccc(SC)c(=O)cc1[C@@H](NC1OCC(O)C(O)C1O)CC2 (stereo partly specified)
T/C (dose: 1.5 mg/kg/injection, schedule: Q01DX009 (ip), vehicle: water): 105 % of control | T/C (dose: 3.0 mg/kg/injection, schedule: Q01DX009 (ip), vehicle: water): 117 % of control | T/C (dose: 6.0 mg/kg/injection, schedule: Q01DX009 (ip), vehicle: water): 113 % of control | T/C (dose: 12.0 mg/kg/injection, schedule: Q01DX009 (ip), vehicle: water): 121 % of control | T/C (dose: 24.0 mg/kg/injection, schedule: Q01DX009 (ip), vehicle: other): 152 % of control | T/C (dose: 24.0 mg/kg/injection, schedule: Q01DX009 (ip), vehicle: water): 123 % of control | T/C (dose: 48.0 mg/kg/injection, schedule: Q01DX009 (ip), vehicle: other): 155 % of control

Cc1cccc(C)c1NC(=O)Nc1cccc(C(F)(F)F)c1
T/C [10]: 100 % of control | T/C [11]: 100 % of control | T/C [12]: 90 % of control

CCOC(=O)n1c2ccccc2c(=O)n1CCO
T/C [10]: 105 % of control | T/C [11]: 97 % of control | T/C [12]: 91 % of control

CCN1C(=O)N(CC)C2(CC(=O)c3ccccc3O2)C1=O (stereo unspecified)
T/C [13]: 111 % of control | T/C [14]: 108 % of control | T/C [15]: 110 % of control

COc1ccc(CC2C=CCN2C(=O)OCc2ccccc2)cc1 (stereo unspecified)
T/C [16]: 106 % of control | T/C [17]: 99 % of control | T/C [18]: 99 % of control

O=C(Nc1cccc(NC(=O)Nc2cccc(C3=NCCN3)c2)c1)Nc1cccc(C2=NCCN2)c1
T/C (dose: 90.0 mg/kg/injection, schedule: Q01DX010 (ip), vehicle: saline): 100 % of control

CN(C)CCN(Cc1ccccc1)c1ccc2ccccc2n1
T/C (dose: 6.25 mg/kg/injection, schedule: Q01DX005 (ip), vehicle: Klucel (hydroxypropylcellulose) (HPC)): 97 % of control | T/C (dose: 12.5 mg/kg/injection, schedule: Q01DX005 (ip), vehicle: Klucel (hydroxypropylcellulose) (HPC)): 97 % of control | T/C (dose: 25.0 mg/kg/injection, schedule: Q01DX005 (ip), vehicle: Klucel (hydroxypropylcellulose) (HPC)): 99 % of control

O=C(NC(Cc1ccc(Br)cc1)C(=O)O)c1ccc(Br)cc1 (stereo unspecified)
T/C [7]: 104 % of control | T/C [8]: 101 % of control | T/C [9]: 104 % of control

CC(=O)Oc1c(C)c(OC(C)=O)c2[nH]c(Cl)c(C=O)c2c1OC(C)=O
T/C [16]: 108 % of control | T/C [17]: 102 % of control

CCOC(=O)c1ccc2c(=O)[nH]nc(CO)c2c1
T/C [19]: 104 % of control | T/C [20]: 102 % of control | T/C [21]: 96 % of control

ClCC#CCOc1c(Cl)cccc1Cl
T/C [22]: 86 % of control | T/C [23]: 92 % of control | T/C (dose: 200.0 mg/kg/injection, schedule: Q01DX009 (ip), vehicle: saline): 98 % of control

Clc1ccccc1OCc1cnc[nH]1
T/C [24]: 102 % of control | T/C [22]: 111 % of control | T/C [23]: 117 % of control

COC(=O)c1nc2[nH]n(-c3ccccc3)c(=O)c2c(C(=O)OC)c1C(C)C(=O)c1ccccc1 (stereo unspecified)
T/C [10]: 100 % of control | T/C [11]: 109 % of control | T/C [12]: 94 % of control

CC1=Nc2ccccc2N(C)/C1=C/C1=CC(=O)c2ccccc2C1=O
T/C (dose: 100.0 mg/kg/injection, schedule: Q04DX003 (ip), vehicle: saline with Tween-80): 108 % of control | T/C (dose: 200.0 mg/kg/injection, schedule: Q04DX003 (ip), vehicle: saline with Tween-80): 117 % of control

CC(C)N(Cc1ccccc1)C(=O)Nc1ccc(Cc2ccc(NC(=O)N(Cc3ccccc3)C(C)C)cc2)cc1
T/C [4]: 90 % of control | T/C [5]: 96 % of control | T/C [6]: 93 % of control

Cc1nc2cc(C)n3c(C)nnc3n2n1
T/C [19]: 105 % of control | T/C [20]: 100 % of control | T/C [21]: 100 % of control

COC(CC(C)(O)C(F)(F)F)OC (stereo unspecified)
T/C [13]: 103 % of control | T/C [14]: 112 % of control | T/C [15]: 110 % of control

COC1=CC(=O)C(=O)C=C1C(C)(C)C
T/C (dose: 2.8 mg/kg/injection, schedule: Q01DX005 (ip), vehicle: saline with Tween-80): 107 % of control | T/C (dose: 5.6 mg/kg/injection, schedule: Q01DX005 (ip), vehicle: saline with Tween-80): 100 % of control | T/C (dose: 11.25 mg/kg/injection, schedule: Q01DX005 (ip), vehicle: saline with Tween-80): 107 % of control | T/C (dose: 22.5 mg/kg/injection, schedule: Q01DX005 (ip), vehicle: saline with Tween-80): 98 % of control and 115 % of control | T/C (dose: 45.0 mg/kg/injection, schedule: Q01DX005 (ip), vehicle: saline with Tween-80): 91 % of control and 96 % of control

CCN(CC)CCCCCCNc1cc(OC)cc2cccnc12
T/C [25]: 86 % of control | T/C [24]: 96 % of control | T/C [22]: 90 % of control

Cc1nn(-c2ccc(Cl)cc2)c2c1c(=O)[nH]c1ccccc12
T/C (dose: 3.75 mg/kg/injection, schedule: Q01DX005 (ip), vehicle: saline with Tween-80): 98 % of control | T/C (dose: 7.5 mg/kg/injection, schedule: Q01DX005 (ip), vehicle: saline with Tween-80): 92 % of control | T/C (dose: 15.0 mg/kg/injection, schedule: Q01DX005 (ip), vehicle: saline with Tween-80): 87 % of control and 88 % of control | T/C [10]: 87 % of control

N=C(N)c1ccc(N=C(N)Nc2ccc(C(=N)N)cc2)cc1
T/C [26]: 95 % of control | T/C [25]: 95 % of control | T/C [24]: 95 % of control

Cn1c(=S)[nH]c2c(c1=O)CCCN2
T/C [16]: 101 % of control | T/C [17]: 99 % of control | T/C [18]: 95 % of control

Cc1cccc(N(CCOS(C)(=O)=O)CCOS(C)(=O)=O)c1
T/C (dose: 1.56 mg/kg/injection, schedule: Q01DX009 (ip), vehicle: saline): 95 % of control | T/C (dose: 3.12 mg/kg/injection, schedule: Q01DX009 (ip), vehicle: saline): 98 % of control | T/C [26]: 100 % of control | T/C (dose: 12.5 mg/kg/injection, schedule: Q01DX009 (ip), vehicle: saline with Tween-80): 87 % of control | T/C [24]: 102 % of control

NC(CCCCNC(=O)c1ccccc1)C(=O)O (stereo unspecified)
T/C [19]: 101 % of control | T/C [20]: 93 % of control | T/C [21]: 99 % of control

Reference: PubChem BioAssay AID330 (DTP/NCI, 2004)
